Assay: In vivo and ex vivo fluorescence imaging
Set-up: species or system Male BALB/c mice
Conditions: mice, i.v.
Procedure: Male BALB/c mice (22–25 g) were bred and maintained in normal watering and feeding conditions in a Laboratory Animal Husbandry Facility, equipped with IVC (individually ventilated cages), controlled atmosphere-temperature, humidity and lighting (Vasile Goldis Western University, Arad, Romania). All experimental procedures were performed in compliance with the appropriate laws and institutional guidelines, and were approved by the Institutional Ethics Committee of Vasile Goldiș Western University of Arad (Arad, Romania). FITC-HPBCD (0.5 and 2.5 mg), dissolved in 0.1 mL saline solution was injected into the femoral vein of mice under general anaesthesia. Maintaining the surgical plane of anesthesia, mice were placed into an in vivo imaging system (In-vivo Xtreme, Carestream, Carestream Health Inc. USA). At 5, 15, 30, 45 and 60 min, fluorescence and X-ray images were recorded of the animals. After 30 or 60 min, the blood vessels of some animals were perfused by warm saline solution and their organs (livers, lungs, kidneys, spleens and brains) were removed for ex vivo imaging (excitation: 480 nm, emission: 535 nm).

6-deoxy-6-[(5/6)-fluoresceinylthioureido]-(2-hydroxypropyl)-β-cyclodextrin [FITC-HPBCD]
ex vivo fluorescence of lungs vs untreated control, separated imaging (0.5 mg): higher ex vivo fluorescence | in vivo whole-body fluorescence distribution (0.5 mg and 2.5 mg/animal, images at 5-60 min): distributed over the entire body of the animals | ex vivo fluorescence of kidneys (0.5 mg, after 30 min): relative higher fluorescence | ex vivo fluorescence of kidneys (2.5 mg/animal): especially high fluorescence | ex vivo fluorescence of lung (2.5 mg/animal): elevated intensity | ex vivo fluorescence of organs vs control (2.5 mg/animal, every organ (livers, lungs, kidneys, spleens, brains)): higher fluorescence intensities | in vivo fluorescence of the bladder (30 and 45 min, urinated out at 60 min): accumulated in the bladder | ex vivo fluorescence of brains vs untreated (after 60 min): no difference | ex vivo fluorescence of brains vs untreated (both doses (0.5 and 2.5 mg), after 30 min, separated examination): higher fluorescence than the untreated ones

— paper PMC6843445, “Pharmacokinetic Properties of Fluorescently Labelled Hydroxypropyl-Beta-Cyclodextrin” (Biomolecules, 2019)
